Assay results: publication PMC2853803 (ACS chemical biology, 2009)
Entries after “also recorded” stand apart in the source; their conditions may differ. Read-outs that look alike come from different tables or passages of the source. Marks after values point to notes of the source that are not given here.

Experiments:
[1] = test system: parental NCI-H460 (ABCG2-) and NCI-H460/MX20 (ABCG2+) cells; assay: Cytotoxicity of botryllamides alone, 7 d; format: cell-based, human; conditions: 100 µM botryllamide, result in words
ABCG2 [2] = molecular target: T1, ABCG2 (Homo sapiens, UniProt Q9UNQ0); assay: Screening assay: pheophorbide a; format: cell-based
T1 sequence (Q9UNQ0 1-655): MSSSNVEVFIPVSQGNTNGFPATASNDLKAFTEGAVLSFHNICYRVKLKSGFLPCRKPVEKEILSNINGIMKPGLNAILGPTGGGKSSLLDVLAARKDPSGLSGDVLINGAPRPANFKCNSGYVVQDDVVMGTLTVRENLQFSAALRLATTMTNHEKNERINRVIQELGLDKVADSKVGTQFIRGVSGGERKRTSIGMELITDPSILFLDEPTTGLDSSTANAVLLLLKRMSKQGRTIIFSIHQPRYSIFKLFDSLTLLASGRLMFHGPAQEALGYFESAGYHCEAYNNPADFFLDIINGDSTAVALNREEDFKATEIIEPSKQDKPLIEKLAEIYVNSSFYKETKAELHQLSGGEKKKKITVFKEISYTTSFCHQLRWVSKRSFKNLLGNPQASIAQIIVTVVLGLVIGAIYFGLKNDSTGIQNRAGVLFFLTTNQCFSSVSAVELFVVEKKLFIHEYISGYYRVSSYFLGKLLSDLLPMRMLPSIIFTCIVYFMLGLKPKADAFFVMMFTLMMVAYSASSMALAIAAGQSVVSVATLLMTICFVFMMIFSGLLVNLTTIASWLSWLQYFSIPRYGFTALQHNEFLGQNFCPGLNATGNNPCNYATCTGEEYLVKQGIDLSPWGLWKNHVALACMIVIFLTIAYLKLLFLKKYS

[3] = test system: NCI-H460/MX20 (ABCG2-overexpressing) cells
NCI-H460 parental cells = assay: Mitoxantrone cytotoxicity in parental cells; format: cell-based, human; conditions: 10 µM mitoxantrone, vs vehicle (data not shown)
P-gp = P-gp (Homo sapiens, UniProt P08183); conditions: 50 µM botryllamide; for effect on P-gp: result in words; for fold change in rhodamine fluorescence (P-gp-mediated transport): valspodar 3 µg/ml, P-gp-expressing HEK293
[4] = Light-induced isomerization on exposure to sunlight; format: physicochemical; conditions: result in words
ABCG2 [5] = molecular target: T1, ABCG2; format: cell-based; conditions: 10 µM compound; for activity in the BODIPY-prazosin flow cytometry assay: result in words
MRP1 = MRP1 (Homo sapiens, UniProt P33527); format: cell-based; conditions: 50 µM botryllamide; for fold increase in cellular calcein fluorescence (MRP1-mediated transport): MK-571 50 µM, MRP1-expressing HEK293; for effect on MRP1: result in words
ABCG2 [6] = molecular target: T1, ABCG2; conditions: 20 µM compound, MCF-7 FLV1000 membranes

P-gp, sequence (P08183 whole entry): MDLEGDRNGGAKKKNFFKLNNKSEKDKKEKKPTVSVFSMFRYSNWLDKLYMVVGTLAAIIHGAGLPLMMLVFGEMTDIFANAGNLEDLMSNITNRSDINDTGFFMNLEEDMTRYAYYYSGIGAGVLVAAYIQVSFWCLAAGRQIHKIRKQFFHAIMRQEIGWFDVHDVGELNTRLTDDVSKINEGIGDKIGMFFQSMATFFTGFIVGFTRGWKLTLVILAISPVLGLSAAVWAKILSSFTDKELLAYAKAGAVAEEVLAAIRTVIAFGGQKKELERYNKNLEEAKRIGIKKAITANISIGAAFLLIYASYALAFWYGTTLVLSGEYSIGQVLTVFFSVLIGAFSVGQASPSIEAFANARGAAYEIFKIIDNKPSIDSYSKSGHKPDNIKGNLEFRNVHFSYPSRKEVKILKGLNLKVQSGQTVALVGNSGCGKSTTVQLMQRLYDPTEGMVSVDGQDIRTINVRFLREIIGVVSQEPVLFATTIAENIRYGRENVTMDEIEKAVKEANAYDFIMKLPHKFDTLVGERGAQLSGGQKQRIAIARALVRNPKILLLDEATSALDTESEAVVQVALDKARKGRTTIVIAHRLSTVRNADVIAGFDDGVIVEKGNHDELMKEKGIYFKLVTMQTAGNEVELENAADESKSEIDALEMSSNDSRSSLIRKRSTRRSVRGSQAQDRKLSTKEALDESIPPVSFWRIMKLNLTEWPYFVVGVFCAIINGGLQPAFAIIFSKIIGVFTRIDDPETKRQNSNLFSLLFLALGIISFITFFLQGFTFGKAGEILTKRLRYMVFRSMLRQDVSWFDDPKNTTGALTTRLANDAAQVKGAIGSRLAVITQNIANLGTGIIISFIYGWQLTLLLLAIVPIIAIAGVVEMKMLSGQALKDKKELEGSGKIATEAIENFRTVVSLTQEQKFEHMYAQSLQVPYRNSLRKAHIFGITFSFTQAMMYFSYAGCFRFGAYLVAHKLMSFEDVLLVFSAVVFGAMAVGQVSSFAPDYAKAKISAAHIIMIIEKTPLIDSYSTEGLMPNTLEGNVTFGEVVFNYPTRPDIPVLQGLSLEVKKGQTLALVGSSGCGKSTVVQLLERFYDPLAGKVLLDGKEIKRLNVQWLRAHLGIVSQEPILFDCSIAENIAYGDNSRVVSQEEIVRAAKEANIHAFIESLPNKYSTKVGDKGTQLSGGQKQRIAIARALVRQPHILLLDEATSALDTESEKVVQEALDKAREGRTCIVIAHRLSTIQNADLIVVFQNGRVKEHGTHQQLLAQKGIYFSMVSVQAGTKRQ
MRP1, sequence (P33527 whole entry): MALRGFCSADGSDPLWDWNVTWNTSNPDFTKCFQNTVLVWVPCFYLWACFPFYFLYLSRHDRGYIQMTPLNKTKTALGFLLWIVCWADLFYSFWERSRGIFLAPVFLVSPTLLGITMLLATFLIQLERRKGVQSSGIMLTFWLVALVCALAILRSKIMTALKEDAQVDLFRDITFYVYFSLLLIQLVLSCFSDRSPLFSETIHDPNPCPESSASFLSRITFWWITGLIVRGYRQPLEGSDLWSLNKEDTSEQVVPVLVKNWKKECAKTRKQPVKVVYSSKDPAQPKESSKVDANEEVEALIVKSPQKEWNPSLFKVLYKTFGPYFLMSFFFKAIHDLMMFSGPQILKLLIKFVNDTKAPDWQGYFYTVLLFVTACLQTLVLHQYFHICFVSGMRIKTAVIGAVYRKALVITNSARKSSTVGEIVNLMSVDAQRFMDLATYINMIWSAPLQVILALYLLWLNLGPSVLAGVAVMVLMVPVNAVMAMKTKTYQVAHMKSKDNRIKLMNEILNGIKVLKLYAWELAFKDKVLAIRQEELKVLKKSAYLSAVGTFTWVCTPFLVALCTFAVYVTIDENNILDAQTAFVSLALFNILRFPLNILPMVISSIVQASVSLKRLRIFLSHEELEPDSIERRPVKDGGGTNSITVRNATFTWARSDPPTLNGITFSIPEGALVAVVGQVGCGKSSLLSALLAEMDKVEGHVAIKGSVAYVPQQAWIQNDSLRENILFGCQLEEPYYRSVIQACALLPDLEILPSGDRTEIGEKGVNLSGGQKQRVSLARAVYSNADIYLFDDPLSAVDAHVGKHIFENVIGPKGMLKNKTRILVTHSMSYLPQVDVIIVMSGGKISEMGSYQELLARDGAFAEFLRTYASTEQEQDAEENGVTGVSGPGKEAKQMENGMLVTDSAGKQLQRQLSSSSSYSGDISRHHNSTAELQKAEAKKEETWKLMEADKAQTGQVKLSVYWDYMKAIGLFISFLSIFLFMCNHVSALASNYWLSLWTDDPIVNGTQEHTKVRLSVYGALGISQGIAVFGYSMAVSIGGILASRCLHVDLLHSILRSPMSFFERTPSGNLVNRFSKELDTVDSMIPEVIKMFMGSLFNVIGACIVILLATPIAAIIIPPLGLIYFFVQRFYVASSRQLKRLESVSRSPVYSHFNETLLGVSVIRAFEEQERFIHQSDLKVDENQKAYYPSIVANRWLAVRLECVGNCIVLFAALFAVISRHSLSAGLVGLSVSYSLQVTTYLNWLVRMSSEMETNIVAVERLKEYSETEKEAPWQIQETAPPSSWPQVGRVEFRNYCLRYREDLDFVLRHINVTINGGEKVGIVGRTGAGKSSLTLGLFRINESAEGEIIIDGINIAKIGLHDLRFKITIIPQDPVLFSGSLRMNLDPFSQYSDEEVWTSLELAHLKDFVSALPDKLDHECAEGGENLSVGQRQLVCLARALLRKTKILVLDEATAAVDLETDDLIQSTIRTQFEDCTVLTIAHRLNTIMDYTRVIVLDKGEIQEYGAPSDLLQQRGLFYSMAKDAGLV

Q: For botryllamide B, which cytotoxicity [1] is on record?
A: Its cytotoxicity is “significant cytotoxicity”.

Q: What about the IC50 (ABCG2 [2]) of the same molecule?
A: Its IC50 is 11.2 ± 0.6 µM.

Q: With `O=C1c2c(O)ccc(O)c2C(=O)c2c(NCCNCCO)ccc(NCCNCCO)c21` [mitoxantrone, reference compound] as the molecule, how does the “cells alive with mitoxantrone alone” value ([3]; 10 µM mitoxantrone, 3 days, NCI-H460 MX20, vs vehicle (DMSO)) read?
A: Its value is “approximately 88%”.

Q: And the “cells surviving with mitoxantrone alone” value (NCI-H460 parental cells)?
A: The value was “approximately 50%”.

Q: Which cytotoxicity [1] does the source give for `CO/C(=C\c1ccc(O)cc1)C(=O)N/C=C/c1ccc(OC)c(Br)c1` [Botryllamide D, botryllamide D] here?
A: The cytotoxicity was “significant cytotoxicity”.

Q: And the “effect on P-gp” value (P-gp)?
A: Its value is “inactive”.

Q: What about the IC50 (ABCG2 [2]) of the same molecule?
A: Its IC50 is 16.4 ± 2.3 µM.

Q: Which stability to sunlight [4] does the source give for botryllamide I here?
A: The stability to sunlight was “irreversibly converted to botryllamide E (5) by exposure to sunlight”.

Q: What about the IC50 (ABCG2 [2]) of the same molecule?
A: The IC50 was 41.4 ± 6.1 µM.

Q: Which cytotoxicity [1] does the source give for `CO/C(=C\c1ccc(O)cc1)C(=O)N/C=C/c1ccc(O)cc1` [Botryllamide F, botryllamide F] here?
A: Its cytotoxicity is “significant cytotoxicity”.

Q: Which “fold change in rhodamine fluorescence (P-gp-mediated transport)” value (“fold change … (P-gp-mediated transport)” for short) (P-gp) does the source give for `C/C=C/C[C@@H](C)C(=O)[C@H]1C(=O)N[C@@H](C(C)C)C(=O)N(C)CC(=O)N(C)[C@@H](CC(C)C)C(=O)N[C@@H](C(C)C)C(=O)N(C)[C@@H](CC(C)C)C(=O)N[C@@H](C)C(=O)N[C@H](C)C(=O)N(C)[C@@H](CC(C)C)C(=O)N(C)[C@@H](CC(C)C)C(=O)N(C)[C@@H](C(C)C)C(=O)N1C` [valspodar, reference compound] here?
A: The value was 29.7 fold.

Q: With `CO/C(=C\c1ccc(O)cc1)C(=O)N/C=C/c1ccc(OC)c(Br)c1` [Botryllamide C, botryllamide C] as the molecule, how does the “activity in the BODIPY-prazosin flow cytometry assay” value (ABCG2 [5]) read?
A: Its value is “active”.

Q: What about the “fold change … (P-gp-mediated transport)” value (P-gp) of the same molecule?
A: Its value is 46.4 fold.

Q: And the “fold increase in cellular calcein fluorescence (MRP1-mediated transport)” value (MRP1)?
A: The value was 3.7 fold.

Q: What about the “activity in the mitoxantrone resistance reversal assay” value ([3]; 10 µM compound + 10 µM mitoxantrone, result in words) of the same molecule?
A: The value was “not particularly active”.

Q: What about the “activity in the screening assay (PhA)” value (ABCG2 [2]; result in words) of the same molecule?
A: The value was “inactive”.

Q: Which “effect on P-gp” value (P-gp) does the source give for `CO/C(=C\c1ccc(O)cc1)C(=O)N/C=C/c1ccc(OC)cc1` [Botryllamide E, botryllamide E] here?
A: The value was “minimal effects; also recorded: inactive”.

Q: And the “effect on MRP1” value (MRP1)?
A: Its value is “minimal effects”.

Q: Which “fold increase in intracellular BODIPY-prazosin fluorescence” value (ABCG2 [5]; ABCG2-transfected HEK293, vs absence of inhibitor) does the source give for `COc1ccc2c3c([nH]c2c1)[C@H](C=C(C)C)N1C(=O)[C@@H]2CCCN2C(=O)[C@@H]1C3` [FTC, fumitremorgin C, reference compound] here?
A: Its value is 3.4 fold.

Q: And the “cells surviving in the presence of mitoxantrone” value ([3]; 10 µM compound + 10 µM mitoxantrone, 3 days, vs vehicle (DMSO) control)?
A: The value was 57%.

Q: What about the “[125I]IAAP binding (incorporation into ABCG2)” value (ABCG2 [6]) of the same molecule?
A: The value was 14 % of control.

Q: Which “effect on P-gp” value (P-gp) does the source give for `CO/C(=C\c1ccc(O)cc1)C(=O)N/C=C/c1cc(Br)c(O)c(Br)c1` [Botryllamide G, botryllamide G] here?
A: The value was “minimal effects; also recorded: inactive”.

Q: What about the “effect on MRP1” value (MRP1) of the same molecule?
A: The value was “minimal effects”.

Q: What about the “max activity (% FTC)” value (ABCG2 [2]; human) of the same molecule?
A: Its value is 123.7 ± 1.7 ^d % FTC.

Q: With `CO/C(=C\c1ccc(O)cc1)C(=O)N/C=C/c1cc(Br)c(OC)c(Br)c1` [Botryllamide A, botryllamide A] as the molecule, how does the “fold change … (P-gp-mediated transport)” value (P-gp) read?
A: The value was 17.6 fold.

Q: And the “fold increase in cellular calcein fluorescence (MRP1-mediated transport)” value (MRP1)?
A: Its value is 4.5 fold.

Q: Which results are given for `[C-]#[N+]c1c(O)cccc1/C=C(/O)C(=O)N/C=C/c1ccc(O)cc1` [Botryllamide H, botryllamide H]?
A: activity in the BODIPY-prazosin flow cytometry assay (ABCG2 [5]): inactive; activity in the screening assay (PhA) (ABCG2 [2]): inactive
